According to ChEMBL document CHEMBL1641419, “Discovery of pyrazolo[1,5-a]pyrimidine-based CHK1 inhibitors: a template-based approach--part 2” (Bioorg Med Chem Lett, 2011):

Experiments:
[1] = biological target: T1, Serine/threonine-protein kinase Chk1 (Homo sapiens, UniProt O14757)
T1 sequence (O14757 whole entry): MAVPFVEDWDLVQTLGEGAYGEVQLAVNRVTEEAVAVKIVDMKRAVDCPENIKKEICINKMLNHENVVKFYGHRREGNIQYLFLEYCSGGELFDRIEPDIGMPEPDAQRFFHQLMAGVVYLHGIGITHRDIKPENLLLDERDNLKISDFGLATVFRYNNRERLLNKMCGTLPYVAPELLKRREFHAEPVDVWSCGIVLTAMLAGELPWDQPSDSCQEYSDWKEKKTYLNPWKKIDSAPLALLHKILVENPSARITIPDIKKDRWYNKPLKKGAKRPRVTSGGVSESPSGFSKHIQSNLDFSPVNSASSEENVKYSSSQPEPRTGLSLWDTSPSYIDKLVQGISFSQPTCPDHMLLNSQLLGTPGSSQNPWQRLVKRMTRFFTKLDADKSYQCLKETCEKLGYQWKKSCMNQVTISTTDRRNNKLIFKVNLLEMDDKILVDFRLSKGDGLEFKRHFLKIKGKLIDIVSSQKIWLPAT
Description: Inhibition of histidine-tagged recombinant CHK1 expressed in baculovirus expression system after 2 hrs by scintillation proximity assay

[2] = biological target: Cyclin-dependent kinase 2/cyclin A (Homo sapiens, UniProt P24941); assay: Inhibition of recombinant CDK2/Cyclin A expressed in insect Sf9 cells assessed as inhibition of [33P]-ATP incorporation into biotinylated histone H1 after 1 hr by liquid scintillation counting

Structure (SMILES) | IC50 [1] | IC50 [2]
Cn1cc(-c2cnn3c(N)c(Cl)c(C4CCCNC4)nc23)cn1 (stereo not drawn) | 0.003 µM | 0.31 µM
CCc1c(C2CCCNC2)nc2c(-c3cnn(C)c3)cnn2c1N (stereo not drawn) | – | 0.33 µM
Cn1cc(-c2cnn3c(N)c(C4CC4)c(C4CCCNC4)nc23)cn1 (stereo not drawn) | – | 0.17 µM
Cn1cc(-c2cnn3c(N)c(-c4ccccc4)c(C4CCCNC4)nc23)cn1 (stereo not drawn) | – | 8.3 µM
Cn1cc(-c2cnn3c(N)c(-c4cccs4)c(C4CCCNC4)nc23)cn1 (stereo not drawn) | – | 0.99 µM
Cn1cc(-c2cnn3c(N)c(-c4ccsc4)c(C4CCCNC4)nc23)cn1 (stereo not drawn) | – | 2.2 µM
Cn1cc(-c2cnn3c(N)c(-c4cccnc4)c(C4CCCNC4)nc23)cn1 (stereo not drawn) | – | 1.5 µM
Cn1cc(-c2cnn3c(N)c(-c4ccncc4)c(C4CCCNC4)nc23)cn1 (stereo not drawn) | – | 11 µM
Nc1c(Br)c(C2CCCNC2)nc2c(-c3cccnc3)cnn12 (stereo not drawn) | 0.017 µM | 0.17 µM
Nc1c(Br)c(C2CCCNC2)nc2c(-c3ccoc3)cnn12 (stereo not drawn) | – | 0.1 µM
Cc1ncc(-c2cnn3c(N)c(Br)c(C4CCCNC4)nc23)s1 (stereo not drawn) | 0.008 µM | 0.2 µM
Cn1cc(-c2cnn3c(N)c(Br)c(C4CCCCN4)nc23)cn1 (stereo not drawn) | 2.9 µM | 28.7 µM
Cn1cc(-c2cnn3c(N)c(Br)c(C4CCNCC4)nc23)cn1 | 0.035 µM | 0.49 µM
Cn1cc(-c2cnn3c(N)c(Br)c(C4CNCCO4)nc23)cn1 (stereo not drawn) | 0.13 µM | 1.2 µM
Cn1cc(-c2cnn3c(N)c(Br)c(C4CNCCS4)nc23)cn1 (stereo not drawn) | – | 0.15 µM
Cn1cc(-c2cnn3c(N)c(Br)c(C4CCNC4)nc23)cn1 (stereo not drawn) | 0.031 µM | 0.51 µM
Cn1cc(-c2cnn3c(N)c(Br)c(CCN)nc23)cn1 | 0.034 µM | –
Cn1cc(-c2cnn3c(N)c(Br)c(CC4CCNC4)nc23)cn1 (stereo not drawn) | 0.007 µM | –
Cn1cc(-c2cnn3c(N)c(Br)c(C[C@H]4CCC[C@@H](N)C4)nc23)cn1 (relative stereo) | 0.005 µM | 0.44 µM

Results, then the molecule that gave them:

IC50 [1] | IC50 [2] | Structure (SMILES)
– | 0.16 µM | Cn1cc(-c2cnn3c(N)c(Br)c(C4CCCNC4)nc23)cn1 (stereo not drawn)
– | 0.33 µM | Cn1cc(-c2cnn3c(N)c(I)c(C4CCCNC4)nc23)cn1 (stereo not drawn)
– | 0.52 µM | CC#Cc1c(C2CCCNC2)nc2c(-c3cnn(C)c3)cnn2c1N (stereo not drawn)
0.026 µM | 0.048 µM | Cn1cc(-c2cnn3c(N)c(CCO)c(C4CCCNC4)nc23)cn1 (stereo not drawn)
– | 2.2 µM | COC/C=C/c1c(C2CCCNC2)nc2c(-c3cnn(C)c3)cnn2c1N (stereo not drawn)
0.1 µM | 1.7 µM | Cn1cc(-c2cnn3c(N)c(C#N)c(C4CCCNC4)nc23)cn1 (stereo not drawn)
– | 2.3 µM | Cn1cc(-c2cnn3c(N)c(-c4ccoc4)c(C4CCCNC4)nc23)cn1 (stereo not drawn)
0.1 µM | 22 µM | Cn1cc(-c2c(C3CCCNC3)nc3c(-c4cnn(C)c4)cnn3c2N)cn1 (stereo not drawn)
4 µM | 1.3 µM | Cn1cc(-c2cnn3c(N)c(Br)c(-c4cccnc4)nc23)cn1
0.087 µM | 2.8 µM | Cn1cc(-c2cnn3c(N)c(Br)c(CC4CCNCC4)nc23)cn1
0.007 µM | – | Cn1cc(-c2cnn3c(N)c(Br)c(CC4CCCNC4)nc23)cn1 (stereo not drawn)
